The results in this text go back to patent US20240041813A1, “VERY-LONG-CHAIN POLYUNSATURATED FATTY ACIDS, ELOVANOID HYDROXYLATED DERIVATIVES, AND METHODS OF USE” (priority 2020, published 2024).

One assay relates to TMPRSS2. The experiment in a line: TMPRSS2 mRNA by Taqman qPCR in human alveolar cells. The note with it: in the presence of IL1β. In kind it is cell-based. On the procedure: Real-Time PCR using Taqman probes and SYBR green assay. cDNA was produced using lug of total RNA extracted by RNAeasy (Qiagen, Hilden Germany, cat #74104). The first strand of cDNA was produced using iScript™ Reverse Transcription Supermix for RT-qPCR (BioRad cat #1708840). The quantification of Sirt 1, RNF-146, Bcl2, BcL-xl was performed using SYBRgreen assay with primers designed in house (Table 1) using SsoAdvanced Universal SYBR Green Supermix (Biorad cat #1725270). The quantification of ACE2 and TMPRSS2 mRNA was performed using Taqman probes (Biorad cat #qHsaCEP0051563 & qHsaCIP0028919 respectively) labeled with FAM and standardized using PGK1 probe labeled with HEX (Biorad cat #qHsaCEP0050174).

The subject of another assay is ACE-2 receptor. The experiment in a line: ACE-2 protein abundance by Jess capillary western in human alveoli in culture. In kind it is cell-based. The note with it: effect dependent on addition of IL-1b. The source says: The Simple Protein platform Jess allows running a protein mixture in a capillary system that also serves as a probing matrix for the antibodies. This platform obviates the need to transfer the size-separated proteins onto a membrane with the consequent loss of sample. The sample amount that can be run in Jess is several times smaller than that required for Western blots. Therefore, high throughput is facilitated in cell cultures. The antibodies to this protein have been validated in our laboratory.
c.1.b. Protein abundance using Jess technology. The Simple Protein platform Jess allows running a protein mixture in a capillary electrophoretic system as a probing matrix for the antibodies (we refer to western blot as “Jess WB” here). This platform obviates the need to transfer the size-separated proteins onto a membrane with a potential loss of sample. The sample size run in Jess is several times smaller than that for classical WB. (400 ng protein/capillary column vs. 10 or more μg for classical WB). The proteins we assess will include ACE2, Furin, ADAM17, DPP4, TMPRSS2, protein surfactant D, and Cathepsin L. In addition, senescence and SASP proteins will also be analyzed. […]
ACE2 Protein abundance using Jess technology. […] Soluble protein concentration was determined by BCA assay (Thermo Fisher Scientific, Cat. 23225) and 0.4 μg used/reaction. […]

Assay [1] has as its system receptor-binding domain (RBD) of the SARS-CoV-2 spike. In kind it is cell-based, human.
For the next assay, the system named is ACE2. The experiment in a line: Rat cornea alkali burn: ACE2 abundance by Jess capillary-based Western Blot. In kind it is in vivo. To be noted: rat cornea after alkali burn; eye drops 20 μl/eye, 3 times/day for 14 days; day 14. The source says: Sprague-Dawley rats (8-week-old male) were obtained from Charles River Laboratories (Wilmington, MA, USA) and kept at the Animal Care of the Neuroscience Center of Excellence, Louisiana State University Health (LSUH; New Orleans, LA, USA). All animals were handled in compliance with the guidelines of the ARVO Statement for the Use of Animals in Ophthalmic and Vision Research, and the experimental protocol was approved by the Institutional Animal Care and Use Committee (IACUC) at LSUH.
The rats were anesthetized by intraperitoneal injection of Ketamine (50-100 mg/kg) plus xylazine (5-10 mg/kg). A 4 mm diameter filter paper soaked in 1 N NaOH was placed on the central cornea of the right eye for 45 seconds, and then the eye was thoroughly washed with […] of saline. After injury, the rats were randomly divided into five treatment groups: vehicle; lipoxin A4 (LXA4) from Cayman Chemical (Ann Arbor, MI, USA); R,R Resolvin D6 isomer (RvD6i), R,R neuroprotection D (NPD1), and elovanoid (ELV)-N32. All lipid solutions were prepared at the final concentration of […] using PBS with the minimal contamination of ethanol by evaporating the ethanol and immediately dissolve the lipids in PBS, then vortex well for 2 min. Topical administration (20 μl) was done 3×/day for 14 days. The experiments were double-blinded with the lipid mediators coded during the whole experiments. At the end of the study, when all data was collected, the code was opened.
Briefly, samples were lysed with RIPA buffer containing a protease inhibitor cocktail (Sigma, Cat. P8340). Cell debris was removed after 10 min centrifugation at 16,000×g. Protein concentration was determined by BCA assay (Thermo Fisher Scientific, Cat. 23225) and 1 μg used/reaction. Fluorescent Master Mix was mixed with 40 mM DTT, and the mixture was added to each sample to provide a denaturing and reducing environment. Samples were heated at 95° C./5 min, and 3 μL of each sample were loaded. The 12-230 kDa cartridge (Protein Simple—#SM-W004) was used. Primary antibodies were diluted in antibody diluent 2 buffer (Protein Simple, #042-203) while the working solution of secondary antibodies was provided by the company (Protein Simple, #042-206). Then, the filled plate was spin-down for 10 min at 1,000×g to remove bubbles and plate, and capillaries were loaded into the Jess machine. For data analysis, the area of spectra that matched the molecular weight of the target protein was used. To reduce the coefficient variant, we analyzed the GAPDH for each capillary. The ratio of the targeted protein to GAPDH was used for statistical comparisons. For visualization, the artificial lanes generated from spectra volume was used.
(A western blot detects proteins with antibodies after separation by electrophoresis.)

The structures appear in SMILES notation.

`CC/C=C\CC(O)\C=C/C=C/C=C/C(O)C/C=C\C/C=C\CCCCCCCCCCCCC(=O)O` [ELV-N32, (14Z,17Z,20R,21E,23E,25Z,27S,29Z)-20,27-dihydroxydo-triaconta-14,17,21,23,25,29-hexaenoic acid]: the TMPRSS2 expression entry in the assay with TMPRSS2 is listed as “decreased”. The “expression of the ACE-2 receptor (protein abundance, Jess)” value with ACE-2 receptor is on record as “downregulate”. In assay [1], the “RBD of the SARS-CoV-2 spike entrance / internalized RBD” value is given as “diminishes” and the “RBD protein internalization (RBD located below the membrane line)” value was “decrease”. Further, in the assay with ACE2, the “ACE2 abundance (protein, normalized to GAPDH)” value is listed as “decrease”.
